Test results: patent publication USRE49850E1, “N-(pyridin-2-yl)-4-(thiazol-5-yl)pyrimidin-2-amine derivatives as therapeutic compounds” (AUCENTRA THERAPEUTICS PTY LTD, priority 2015, dated 2024)

Experiments:
CDK1B = CDK1B (Homo sapiens, UniProt P06493); assay: Kinase assay CDK1B (radiometric profiling service); assay type: biochemical; conditions: for Ki: apparent Ki calculated from Km (ATP) and IC50, read-out: CDK inhibition Ki CDK1B
Summary of the method: (§1)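 Luminescent ADP-Glo read-out for CDK4/D1 (radiometric alternative); CDK7/2/1 radiometric via profiler. CDK4/D1: RB-CTF, Tris pH 7.5, MgCl2, DTT, BSA, ATP start, 40 min 37° C. 10-pt 1:3 series, 10 μM–0.5 nM. 4-PL IC50; Ki calc. from Km(ATP).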

CDK 2A = CDK 2A (Homo sapiens, UniProt P24941); assay: Kinase assay CDK2A (radiometric profiling service); assay type: biochemical; conditions: for Ki: apparent Ki calculated from Km (ATP) and IC50, read-out: CDK inhibition Ki CDK 2A
Summary of the method: as §1

CDK4D1 = molecular target: T1, CDK4D1 (Homo sapiens, UniProt P11802); assay: Kinase assay CDK4/D1 (radiometric or ADP Glo); assay type: biochemical; conditions: apparent Ki calculated from Km (ATP) and IC50; read-out: CDK inhibition Ki CDK4D1
T1 construct: purchased Eurofins Pharma Discovery or Reaction Biology Corporation (service)
Summary of the method: as §1

CDK6D3 = molecular target: T2, CDK6D3 (Homo sapiens, UniProt Q00534); assay: Kinase assay CDK6/D3 (radiometric or ADP Glo); assay type: biochemical; conditions: apparent Ki calculated from Km (ATP) and IC50; read-out: CDK inhibition Ki CDK6D3
T2 construct: purchased Eurofins Pharma Discovery or Reaction Biology Corporation (service)
Summary of the method: (§2)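 Radiometric inhibition data for CDKs came from Eurofins or Reaction Biology profiling services; CDK4/D1 was also run in-house by ADP-Glo in […] pH 7.5, 20 mM MgCl2, 0.4 mM DTT, 0.1 mg/ml BSA with RB-CTF substrate, 40 min at 37 °C after ATP start. Ten-point 1:3 dilutions (10 μM–0.5 nM); four-parameter IC50, Ki from IC50 and ATP Km.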

CDK7H = CDK7H (Homo sapiens, UniProt P50613); assay: Kinase assay CDK7H (radiometric profiling service); assay type: biochemical; conditions: for Ki: apparent Ki calculated from Km (ATP) and IC50, read-out: CDK inhibition Ki CDK7H
Summary of the method: as §1

CDK9T1 = molecular target: T3, CDK9T1 (Homo sapiens, UniProt P50750); assay: Kinase assay CDK9/T1 (radiometric or ADP Glo); assay type: biochemical; conditions: apparent Ki calculated from Km (ATP) and IC50; read-out: CDK inhibition Ki CDK9T1
T3 construct: purchased Eurofins Pharma Discovery or Reaction Biology Corporation (service)
Summary of the method: as §2

MV4-11 = assay: Cell viability assay (resazurin, leukemia cell line) MV4-11; assay type: cell-based, human; conditions: Homo sapiens, MV4-11, 72 h; read-out: Anti-proliferative activity GI50 MV4-11
Text: (§3) Compounds from Example 1 were subjected to a standard MTT (3-(4,5-dimethylthiazol-2-yl)-2,5-diphenyltetrazolium bromide) and resazurin assays on solid tumour cell lines and leukemia cell lines, respectively, as previously reported (Wang S et al., J Med Chem 47:1662-1675, 2004 and Diab S. et al. CheMedChem 9:962-972, 2014).

MDA-MB-453 = assay: Cell viability assay (MTT, solid tumour cell line) MDA-MB-453; assay type: cell-based, human; conditions: Homo sapiens, MDA-MB-453, 72 h; read-out: Anti-proliferative activity GI50 MDA-MB-453
Text: as §3

KG-1 = assay: Cell viability assay, leukemia KG-1; assay type: cell-based; conditions: Homo sapiens, 72 h, read-out: Antiproliferative activity GI50 KG-1
Text: as §3

MOLM-13 = assay: Cell viability assay, leukemia MOLM-13; assay type: cell-based; conditions: Homo sapiens, 72 h, read-out: Antiproliferative activity GI50 MOLM-13
Text: as §3

Pharmacokinetics in rat = assay type: in vivo, Wistar Rat; conditions: po; for bioavailability: vs IV dosing, read-out: Oral bioavailability (F %)
Experimental: (§4) For pharmacokinetic measurements, healthy male adult Balb/C mice (weighing 20-25 g) or Wistar Rat (weighing 250-350 g) were split into weight matched groups of 3 per group. […] Blood samples were collected from animals by jugular vein cannula (rats) or under anaesthesia by cardiac puncture (mice) at time zero and at intervals up to 24 h. Harvested blood was centrifuged at 7000×G for 2 minutes, and the plasma aspirated and frozen at −20° C. until analysis. Quantitative analysis of compound in plasma was carried out using LC-MS/MS methods. Pharmacokinetic data derived using Phoenix WinNonlin 6.4® non-compartmental analysis. Oral bioavailability (% F) was calculated by taking the ratio of dose-normalised AUC values from oral versus parenteral (IV) dosing.

A2780 = assay: Cell viability assay, ovarian A2780; assay type: cell-based; conditions: Homo sapiens, A2780; 72 h, Ovarian; read-out: Antiproliferative activity GI50 A2780
Text: as §3

D458 = assay: Cell viability assay, medulloblastoma D458; assay type: cell-based; conditions: Homo sapiens; 72 h, Medulloblastoma; read-out: Antiproliferative activity GI50 D458
Text: as §3

D283 = assay: Cell viability assay, medulloblastoma D283; assay type: cell-based; conditions: Homo sapiens, D283; 72 h, Medulloblastoma; read-out: Antiproliferative activity GI50 D283
Text: as §3

MV4-11 cells = assay: Cell cycle analysis (PI staining, flow cytometry); assay type: cell-based, human; conditions: MV4-11 cells treated for 24 h, FIG. 1
Experimental: Cell cycle analysis and apoptosis studies were performed as described previously (Diab S. et al. CheMedChem 9:962-972, 2014; Teo T., et al. Cancer Letters, 357(2):612-623, 2015). Briefly, human acute myeloid leukaemia MV4-11 cells (1×10^5) were seeded and incubated overnight at 37° C. and 5% CO2. Cells were centrifuged at 300×g for 5 min upon treatment with inhibitor. Cell pellets were collected and fixed with 70% ethanol on ice for 15 min, followed by centrifugation at 300×g for 5 min. The collected pellets were incubated with staining solution (50 μg/mL PI, 0.1 mg/mL ribonuclease A, 0.05% Triton X-100) at 37° C. for an hour and analysed with Gallios flow cytometer. 1×10^5 of the remaining cells were then used in an apoptotic assay with Annexin V-FITC Apoptosis Detection Kit. The samples were analysed by FACS within one hour of staining. Data were analysed using Kaluza v1.2.
In an example shown in FIG. 1, MV4-11 cells were treated with compound 60 for 24 hat the concentrations shown.

Pharmacokinetics in mice = assay type: in vivo, Balb/C mice; conditions: po, 10 mg/kg in mice
Experimental: as §4

[1] = male, Wistar, plasma, 20 mg/kg in rat
[2] = male, Wistar, plasma, 40 mg/kg in rat

T2 sequence (Q00534 whole entry): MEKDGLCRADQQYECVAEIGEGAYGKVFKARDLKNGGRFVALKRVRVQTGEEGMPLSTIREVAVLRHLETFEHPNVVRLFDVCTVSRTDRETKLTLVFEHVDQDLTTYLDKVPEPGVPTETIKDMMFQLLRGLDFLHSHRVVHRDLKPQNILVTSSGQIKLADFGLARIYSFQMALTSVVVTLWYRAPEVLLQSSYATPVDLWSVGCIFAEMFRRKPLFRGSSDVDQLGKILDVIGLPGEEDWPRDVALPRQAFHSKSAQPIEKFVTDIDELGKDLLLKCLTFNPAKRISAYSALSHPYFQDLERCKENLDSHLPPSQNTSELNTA
T2 sequence (P30281 whole entry partner): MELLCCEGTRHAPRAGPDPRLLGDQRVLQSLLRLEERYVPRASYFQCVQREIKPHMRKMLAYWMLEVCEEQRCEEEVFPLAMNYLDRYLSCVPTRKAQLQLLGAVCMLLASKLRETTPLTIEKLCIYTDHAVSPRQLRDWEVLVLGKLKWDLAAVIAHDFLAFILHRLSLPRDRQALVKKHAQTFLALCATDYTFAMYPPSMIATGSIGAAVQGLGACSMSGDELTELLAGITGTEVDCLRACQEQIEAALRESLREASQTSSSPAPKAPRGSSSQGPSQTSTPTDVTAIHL
T1 sequence (P11802 whole entry): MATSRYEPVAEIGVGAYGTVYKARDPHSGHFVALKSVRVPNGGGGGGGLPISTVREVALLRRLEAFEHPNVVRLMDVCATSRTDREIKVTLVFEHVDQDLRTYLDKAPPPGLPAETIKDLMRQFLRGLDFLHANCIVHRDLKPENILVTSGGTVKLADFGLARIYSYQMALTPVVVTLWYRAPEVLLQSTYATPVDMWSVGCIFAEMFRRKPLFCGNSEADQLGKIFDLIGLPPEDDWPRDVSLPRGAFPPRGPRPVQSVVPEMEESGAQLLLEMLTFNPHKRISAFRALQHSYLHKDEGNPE
T1 sequence (P24385 whole entry partner): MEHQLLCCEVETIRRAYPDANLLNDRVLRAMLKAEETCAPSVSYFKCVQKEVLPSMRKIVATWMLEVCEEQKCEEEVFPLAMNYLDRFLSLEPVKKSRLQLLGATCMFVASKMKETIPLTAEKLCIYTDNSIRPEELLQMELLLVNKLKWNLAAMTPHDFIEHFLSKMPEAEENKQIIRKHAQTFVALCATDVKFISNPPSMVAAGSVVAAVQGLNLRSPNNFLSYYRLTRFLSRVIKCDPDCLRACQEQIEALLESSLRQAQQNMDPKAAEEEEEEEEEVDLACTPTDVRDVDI
CDK1B, sequence (P06493 whole entry): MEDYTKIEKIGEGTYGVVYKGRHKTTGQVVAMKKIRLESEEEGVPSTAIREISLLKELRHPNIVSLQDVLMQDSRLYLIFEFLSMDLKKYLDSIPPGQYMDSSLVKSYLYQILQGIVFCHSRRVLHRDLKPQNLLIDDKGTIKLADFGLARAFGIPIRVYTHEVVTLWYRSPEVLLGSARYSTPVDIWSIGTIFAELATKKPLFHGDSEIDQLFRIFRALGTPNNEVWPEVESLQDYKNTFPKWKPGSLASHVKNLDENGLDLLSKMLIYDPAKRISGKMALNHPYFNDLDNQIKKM
CDK1B, sequence (P14635 whole entry partner): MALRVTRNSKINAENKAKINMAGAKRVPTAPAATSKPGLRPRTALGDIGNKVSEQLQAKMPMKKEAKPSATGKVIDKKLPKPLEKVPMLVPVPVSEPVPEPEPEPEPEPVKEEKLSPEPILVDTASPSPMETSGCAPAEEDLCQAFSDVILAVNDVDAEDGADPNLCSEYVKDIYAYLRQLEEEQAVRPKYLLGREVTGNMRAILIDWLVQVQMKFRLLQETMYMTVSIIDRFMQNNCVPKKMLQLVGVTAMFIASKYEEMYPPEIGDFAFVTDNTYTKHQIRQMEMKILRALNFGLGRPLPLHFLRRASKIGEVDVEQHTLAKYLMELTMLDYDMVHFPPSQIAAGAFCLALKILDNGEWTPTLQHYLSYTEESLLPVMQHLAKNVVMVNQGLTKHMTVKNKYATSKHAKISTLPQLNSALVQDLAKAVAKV
CDK7H, sequence (P50613 whole entry): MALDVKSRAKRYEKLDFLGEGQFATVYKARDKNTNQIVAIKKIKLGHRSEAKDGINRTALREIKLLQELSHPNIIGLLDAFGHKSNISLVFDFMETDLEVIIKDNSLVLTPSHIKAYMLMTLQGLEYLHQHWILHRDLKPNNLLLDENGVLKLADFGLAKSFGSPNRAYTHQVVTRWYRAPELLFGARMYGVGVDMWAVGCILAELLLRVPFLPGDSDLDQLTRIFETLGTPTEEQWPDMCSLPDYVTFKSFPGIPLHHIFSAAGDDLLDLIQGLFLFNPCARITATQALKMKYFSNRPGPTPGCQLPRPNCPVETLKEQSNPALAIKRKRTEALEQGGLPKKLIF
CDK7H, sequence (P51946 whole entry partner): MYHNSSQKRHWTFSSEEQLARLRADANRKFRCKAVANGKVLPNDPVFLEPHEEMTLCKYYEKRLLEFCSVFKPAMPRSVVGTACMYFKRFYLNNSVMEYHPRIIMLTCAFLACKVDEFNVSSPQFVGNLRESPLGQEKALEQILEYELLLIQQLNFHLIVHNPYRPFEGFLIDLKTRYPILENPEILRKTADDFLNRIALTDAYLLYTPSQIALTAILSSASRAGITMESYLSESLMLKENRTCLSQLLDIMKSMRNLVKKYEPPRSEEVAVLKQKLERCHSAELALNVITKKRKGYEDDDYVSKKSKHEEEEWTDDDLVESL
CDK7H, sequence (P51948 whole entry partner): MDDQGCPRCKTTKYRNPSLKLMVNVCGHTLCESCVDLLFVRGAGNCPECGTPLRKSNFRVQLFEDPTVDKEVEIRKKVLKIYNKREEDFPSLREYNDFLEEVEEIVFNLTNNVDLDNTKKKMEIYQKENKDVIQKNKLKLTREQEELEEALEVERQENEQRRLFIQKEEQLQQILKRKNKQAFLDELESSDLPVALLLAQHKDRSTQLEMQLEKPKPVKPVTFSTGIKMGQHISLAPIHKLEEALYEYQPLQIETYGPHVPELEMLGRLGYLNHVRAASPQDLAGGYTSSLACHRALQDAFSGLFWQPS
T3 sequence (P50750 whole entry): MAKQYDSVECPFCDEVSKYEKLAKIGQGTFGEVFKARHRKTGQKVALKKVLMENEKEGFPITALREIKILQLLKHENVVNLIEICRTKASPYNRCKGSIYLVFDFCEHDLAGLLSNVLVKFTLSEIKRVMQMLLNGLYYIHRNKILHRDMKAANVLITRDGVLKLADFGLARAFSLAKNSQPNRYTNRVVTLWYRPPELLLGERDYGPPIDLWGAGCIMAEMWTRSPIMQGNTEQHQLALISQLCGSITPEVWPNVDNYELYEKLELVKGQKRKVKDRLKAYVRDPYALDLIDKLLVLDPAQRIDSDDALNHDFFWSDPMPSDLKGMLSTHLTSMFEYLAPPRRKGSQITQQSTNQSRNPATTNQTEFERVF
T3 sequence (O60563 whole entry partner): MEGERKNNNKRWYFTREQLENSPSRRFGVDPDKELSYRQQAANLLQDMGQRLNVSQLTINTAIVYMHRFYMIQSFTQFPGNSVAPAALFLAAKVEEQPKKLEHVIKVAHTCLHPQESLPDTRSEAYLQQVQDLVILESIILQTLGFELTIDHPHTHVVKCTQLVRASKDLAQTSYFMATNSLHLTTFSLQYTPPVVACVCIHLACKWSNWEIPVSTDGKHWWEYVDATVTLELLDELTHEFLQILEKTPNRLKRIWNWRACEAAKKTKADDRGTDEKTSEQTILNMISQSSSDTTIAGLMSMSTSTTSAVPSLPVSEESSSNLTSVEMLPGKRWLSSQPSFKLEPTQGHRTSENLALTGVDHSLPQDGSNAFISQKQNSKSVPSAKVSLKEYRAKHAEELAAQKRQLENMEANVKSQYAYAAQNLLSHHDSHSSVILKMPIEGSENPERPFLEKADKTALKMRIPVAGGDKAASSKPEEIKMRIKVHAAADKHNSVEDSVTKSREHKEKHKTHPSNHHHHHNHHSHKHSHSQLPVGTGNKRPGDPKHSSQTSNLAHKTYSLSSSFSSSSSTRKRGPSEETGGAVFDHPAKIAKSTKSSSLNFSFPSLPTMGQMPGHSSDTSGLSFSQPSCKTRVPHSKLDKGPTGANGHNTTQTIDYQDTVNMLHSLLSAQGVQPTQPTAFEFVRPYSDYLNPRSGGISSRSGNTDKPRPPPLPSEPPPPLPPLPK

Structure (SMILES)	Ki (CDK1B) [nM]	Ki (CDK 2A) [nM]	Ki (CDK4D1) [nM]	Ki (CDK6D3) [nM]	Ki (CDK7H) [nM]	Ki (CDK9T1) [nM]	GI50 (MV4-11) [nM]	GI50 (MDA-MB-453) [nM]	GI50 (KG-1) [nM]	GI50 (MOLM-13) [nM]	also measured
CCc1nc(C)c(-c2ccnc(Nc3ccc(N4CCN(CC)CC4)cn3)n2)s1 [Compound 9, 4-(2-ethyl-4-methylthiazol-5-yl)-N-(5-(4-ethylpiperazin-1-yl)pyridin-2-yl)pyrimidin-2-amine]	> 5000	1800	10	1670	> 5000	> 5000	591 ± 83	3320 ± 576	47 ± 15	293 ± 28	–
CNc1nc(C)c(-c2nc(Nc3ccc(N4CCN(C(C)=O)CC4)cn3)ncc2C#N)s1 [Compound 34, 2-((5-(4-acetylpiperazin-1-yl)pyridin-2-yl)amino)-4-(4-methyl-2-(methylamino)thiazol-5-yl)pyrimidine-5-carbonitrile]	> 5000	4470	–	–	> 5000	> 5000	174 ± 22	813 ± 22	112 ± 45	408 ± 25	AUC (Pharmacokinetics in rat; [1]): 10.2 µM·h; Cmax (Pharmacokinetics in rat; [1]): 600 nM; half-life (Pharmacokinetics in rat; [1]): 4.6 h; bioavailability (Pharmacokinetics in rat; [1]): 39%
Cc1nc(N(C)C)sc1-c1nc(Nc2ccc(N3CCN(C)CC3)cn2)ncc1F [Compound 46, 5-(5-fluoro-2-((5-(4-methylpiperazin-1-yl)pyridin-2-yl)amino)pyrimidin-4-yl)-N,N,4-trimethylthiazol-2-amine]	> 5000	1390	2	55	> 5000	4360	73 ± 10	638 ± 42	5 ± 4	98 ± 12	–
CNc1nc(C)c(-c2nc(Nc3ccc(N4CCC(N(C)C)CC4)cn3)ncc2F)s1 [Compound 47, 5-(2-((5-(4-(dimethylamino)piperidin-1-yl)pyridin-2-yl)amino)-5-fluoropyrimidin-4-yl)-N,4-dimethylthiazol-2-amine]	> 5000	3340	2	279	> 5000	> 5000	107 ± 22	349 ± 36	6 ± 1	76 ± 8	–

More lines, main results first:

Ki (CDK1B) [nM]	Ki (CDK 2A) [nM]	Ki (CDK4D1) [nM]	Ki (CDK6D3) [nM]	Ki (CDK7H) [nM]	Ki (CDK9T1) [nM]	GI50 (MV4-11) [nM]	GI50 (MDA-MB-453) [nM]	GI50 (KG-1) [nM]	GI50 (MOLM-13) [nM]	Structure (SMILES)	also measured
> 5000	> 5000	–	–	–	–	23 ± 24	70 ± 13	–	–	Cc1nc(NC2CCCC2)sc1-c1ccnc(Nc2ccc(N3CCNCC3)cn2)n1 [Compound 60, N-cyclopentyl-4-methyl-5-(2-((5-(piperazin-1-yl)pyridin-2-yl)amino)pyrimidin-4-yl)thiazol-2-amine]	GI50 (A2780): 81 ± 1 nM; GI50 (D458): 321 ± 68 nM; GI50 (D283): 124 ± 20 nM; Cell cycle effect (MV4-11 cells): arrested cells in the G1 phase of the cell-cycle in a dose-dependent manner; AUC (Pharmacokinetics in rat; [2]): 6.6 µM·h; Cmax (Pharmacokinetics in rat; [2]): 500 nM; half-life (Pharmacokinetics in rat; [2]): 16.4 h; bioavailability (Pharmacokinetics in rat; [2]): 51%
> 5000	2940	5	29	> 5000	> 5000	335 ± 184	3680 ± 285	–	–	Cc1nc(NC2CCCC2)sc1-c1ccnc(Nc2ccc(N3CCOCC3)cn2)n1 [Compound 71, N-cyclopentyl-4-methyl-5-(2-((5-morpholinopyridin-2-yl)amino)pyrimidin-4-yl)thiazol-2-amine]	AUC (Pharmacokinetics in rat; [1]): 15.9 µM·h; bioavailability (Pharmacokinetics in rat; [1]): 27%; Cmax (Pharmacokinetics in rat; 20 mg/kg in rat): 1400 nM; t1/2 (Pharmacokinetics in rat; 20 mg/kg in rat): 2.8 h; AUC (Pharmacokinetics in mice; male, Balb/C, mouse, plasma): 5.9 µM·h; half-life (Pharmacokinetics in mice; male, Balb/C, mouse, plasma): 5 h; bioavailability (Pharmacokinetics in mice; male, Balb/C, mouse, plasma, vs IV dosing, read-out: Oral bioavailability (F %)): 100%; Cmax (Pharmacokinetics in mice): 1600 nM
> 5000	476	2	10	> 5000	1800	20 ± 15	3360 ± 286	–	–	Cc1nc(N(C)C2CCCC2)sc1-c1ccnc(Nc2ccc(N3CCN(C)CC3)cn2)n1 [Compound 86, N-cyclopentyl-N,4-dimethyl-5-(2-((5-(4-methylpiperazin-1-yl)pyridin-2-yl)amino)pyrimidin-4-yl)thiazol-2-amine]	GI50 (A2780): 72 ± 20 nM; GI50 (D458): 617 ± 112 nM; GI50 (D283): 358 ± 100 nM
–	–	27	155	–	950	752 ± 33	3330 ± 864	–	–	Cc1[nH]c(=O)sc1-c1ccnc(Nc2ccc(N3CCN(C)CC3)cn2)n1 [Compound 92, 4-methyl-5-(2-((5-(4-methylpiperazin-1-yl)pyridin-2-yl)amino)pyrimidin-4-yl)thiazol-2(3H)-one]	remaining activity at 10 µM (CDK1B; compound at 10 μM, read-out: % remaining enzymatic activity at 10 μM CDK1B): 51%; remaining activity at 10 µM (CDK 2A; compound at 10 μM, read-out: % remaining enzymatic activity at 10 μM CDK 2A): 61%; remaining activity at 10 µM (CDK7H; compound at 10 μM, read-out: % remaining enzymatic activity at 10 μM CDK7H): 24%; melting point: 228 to 230 °C
